For data set [1] the following is noted: Liquid; for mass density: 293.15 K, 101.33 kPa; for vapor or sublimation pressure: Ebulliometric method (Recirculating still).
The nature of data set [2]: refractive index (Na D-line) (dimensionless). The following applies: 293.15 K; 101.33 kPa; Liquid; Standard Abbe refractometry.

Numbers after ± are expanded uncertainties.

For the molecule `COc1ccccc1` [anisole], the mass density in data set [1] stood at 994.1 ± 1.2 kg/m3. Moreover, the “vapor or sublimation pressure” value was 26.66 ± 0.25 kPa in data set [1] (383.1 K), 53.33 ± 0.3 kPa in data set [1] (404.24 K), 79.99 ± 0.43 kPa in data set [1] (417.99 K) and 101.32 ± 0.5 kPa in data set [1] (426.54 K). Further, in data set [2], the refractive index was determined as 1.5171 ± 0.0007.

In the case of `CCCCCCCCC` [nonane], the mass density in data set [1] is reported as 717.6 ± 0.7 kg/m3. For the same molecule, the “vapor or sublimation pressure” value in data set [1] (379.88 K) came to 26.66 ± 0.25 kPa; in data set [1] (401.28 K), 53.33 ± 0.3 kPa; in data set [1] (415.26 K) it was 79.99 ± 0.42 kPa; in data set [1] (423.97 K), 101.32 ± 0.49 kPa. Moreover, in data set [2], the refractive index is 1.4055 ± 0.0007.

As to `CCCCCO` [pentan-1-ol], the mass density in data set [1] worked out at 814.5 ± 1 kg/m3. Besides, the “vapor or sublimation pressure” value in data set [1] (375.63 K) is reported as 26.66 ± 0.31 kPa; in data set [1] (392.7 K), 53.33 ± 0.37 kPa; in data set [1] (403.8 K), 79.99 ± 0.53 kPa; in data set [1] (410.86 K), 101.32 ± 0.61 kPa. In addition, the refractive index in data set [2] came out at 1.4098 ± 0.0007.

As usually defined, the mass density is mass per unit of volume. As a reminder, the vapor or sublimation pressure is the pressure of vapour in equilibrium with the condensed phase. Usually refractive index stands for the speed of light in vacuum divided by its phase velocity in the sample.
